A value given as a limit tells only on which side of the number the result lay.

One assay deals with COLO-320. As to the kind of experiment: Cell proliferation (cell count by microscopy), COLO-320. The class given is cell-based. The following applies: Homo sapiens; COLO-320 (no driver mutation listed), 72 h treatment, single agent tested 13 nM-10 μM; 50% of cell counts relative to DMSO. An excerpt: (§1) The debris counts were subtracted from raw nuclei counts.
(§2) The model input were inhibition values per drug dose: […]

A further assay has as its system RKO. Nature of the assay: Cell proliferation (cell count by microscopy), RKO. The following applies: Homo sapiens; RKO (BRAF, PIK3CA), 72 h treatment, single agent tested 13 nM-10 μM; 50% of cell counts relative to DMSO. Format: cell-based.
Description: as §1, §2

The next assay relates to LS411N. Nature of the assay: Cell proliferation (cell count by microscopy), LS411N. Format: cell-based. The following applies: Homo sapiens, LS-411N; LS411N (BRAF), 72 h treatment, single agent tested 13 nM-10 μM; 50% of cell counts relative to DMSO.
Description: as §1, §2

The next assay deals with COLO-205. As to the kind of experiment: Cell proliferation (cell count by microscopy), COLO-205. Format: cell-based. The following applies: Homo sapiens; COLO-205 (BRAF), 72 h treatment, single agent tested 13 nM-10 μM; 50% of cell counts relative to DMSO.
Description: as §1, §2

Another assay concerns GP2d. As to the kind of experiment: Cell proliferation (cell count by microscopy), GP2d. Format: cell-based. The following applies: GP2d (KRAS, PIK3CA), 72 h treatment, single agent tested 13 nM-10 μM; 50% of cell counts relative to DMSO.
Description: as §1, §2

The next assay relates to LIM2551. Nature of the assay: Cell proliferation (cell count by microscopy), LIM2551. Format: cell-based. The following applies: LIM2551 (BRAF, PIK3CA), 72 h treatment, single agent tested 13 nM-10 μM; 50% of cell counts relative to DMSO.
Description: as §1, §2

In a further assay the test system is DLD-1. Nature of the assay: Cell proliferation (cell count by microscopy), DLD-1. The following applies: Homo sapiens; DLD-1 (KRAS, PIK3CA), 72 h treatment, single agent tested 13 nM-10 μM; 50% of cell counts relative to DMSO. Format: cell-based.
Description: as §1, §2

In the next assay the test system is LS-180. Nature of the assay: Cell proliferation (cell count by microscopy), LS-180. The class given is cell-based. The following applies: Homo sapiens, LS180; LS-180 (KRAS, PIK3CA), 72 h treatment, single agent tested 13 nM-10 μM; 50% of cell counts relative to DMSO.
Description: as §1, §2

Another assay concerns OUMS-23. As to the kind of experiment: Cell proliferation (cell count by microscopy), OUMS-23. Format: cell-based. The following applies: OUMS-23 (BRAF), 72 h treatment, single agent tested 13 nM-10 μM; 50% of cell counts relative to DMSO.
Description: as §1, §2

The next assay deals with SW480. Nature of the assay: Cell proliferation (cell count by microscopy), SW480. The class given is cell-based. The following applies: Homo sapiens; SW480 (KRAS), 72 h treatment, single agent tested 13 nM-10 μM; 50% of cell counts relative to DMSO.
Description: as §1, §2

The test system of a further assay is HT-29. Nature of the assay: Cell proliferation (cell count by microscopy), HT-29. Format: cell-based. The following applies: Homo sapiens; HT-29 (BRAF, PIK3CA), 72 h treatment, single agent tested 13 nM-10 μM; 50% of cell counts relative to DMSO.
Description: as §1, §2

The subject of the next assay is LoVo. Nature of the assay: Cell proliferation (cell count by microscopy), LoVo. The following applies: Homo sapiens; LoVo (KRAS), 96 h treatment, single agent tested 13 nM-10 μM; 50% of cell counts relative to DMSO. Format: cell-based.
Description: as §1, §2

In another assay the test system is SW837. As to the kind of experiment: Cell proliferation (cell count by microscopy), SW837. The class given is cell-based. The following applies: Homo sapiens; SW837 (KRAS), 72 h treatment, single agent tested 13 nM-10 μM; 50% of cell counts relative to DMSO.
Description: as §1, §2

In another assay the test system is HCT-116. Nature of the assay: Cell proliferation (cell count by microscopy), HCT-116. The following applies: Homo sapiens; HCT-116 (KRAS, PIK3CA), 72 h treatment, single agent tested 13 nM-10 μM; 50% of cell counts relative to DMSO. The class given is cell-based.
Description: as §1, §2

Assay [1] relates to 15 colorectal cancer cell lines. The following applies: single agent, 13 nM-10 μM.
Description: The compounds were dissolved in 100% DMSO (Sigma, Catalog number D2650) at concentrations of 20 mM and stored at -20° C. until use.
All cell line media were supplemented with 10% FBS (HyClone, Catalog number SH30071.03).
Cell lines were cultured in 37° C. and 5% CO2 incubator and expanded in T-75 flasks. In all cases cells were thawed from frozen stocks, expanded through ≤1 passage using 1:3 dilutions, counted and assessed for viability using a ViCell counter (Beckman-Coulter) prior to plating. […] All cell lines were determined to be free of mycoplasma contamination as determined by a PCR detection methodology performed at Idexx Radil (Columbia, Mo., USA) and correctly identified by detection of a panel of SNPs.
The compound's effect on cell proliferation was calculated from the cell counts of the treatments relative to the cell counts of the negative control (DMSO), in FIG. 1 denoted as ‘Normalized cell count’ (=‘xnorm’) on the y-axis. […] The model input were inhibition values per drug dose:
I=1-xnorm • I: Inhibition • xnorm: normalized cell count (median of three replicates) […]
C=ΣConc(Idata*(Idata−Imodel)) • Idata: measured inhibition • Imodel: inhibition according to HSA null hypothesis
Robust combination z-scores (zC) were calculated as the ratio of the treatments' combination scores C and the median absolute deviation (mad) of non-interacting combinations: […]

For orientation: IC50 means the concentration that gives 50% inhibition. As for `C#Cc1cccc(Nc2ncnc3cc(OCCOC)c(OCCOC)cc23)c1` [Erlotinib, N-(3-ethynylphenyl)-6,7-bis(2-methoxyethoxy)quinazolin-4-amine], the IC50 with COLO-320 was 6.92 µM; with RKO, over 10 µM; in the assay on LS411N, over 10 µM; in the assay with COLO-205, over 10 µM; in the assay with GP2d, 8.86 µM; in the assay on LIM2551, over 10 µM. Further, the half-maximal inhibitory concentration (IC50) is 7.06 µM with DLD-1; over 10 µM with LS-180; over 10 µM with OUMS-23; over 10 µM in the assay on SW480; over 10 µM in the assay on HT-29; 0.716 µM with LoVo. Also, the IC50 in the assay on SW837 and in the assay with HCT-116 was over 10 µM throughout. In assay [1], the “cell lines in which IC50s were achieved for the concentration range tested” value was 5/15.

Values taken from US20180243304A1, “PHARMACEUTICAL COMBINATIONS COMPRISING (A) THE CYCLIN DEPENDENT KINASE 4/6 (CDK4/6) INHIBITOR LEE011 (=RIBOCICLIB), AND (B) THE EPIDERMAL GROWTH FACTOR RECEPTOR (EGFR) INHIBITOR ERLOTINIB, FOR THE TREATMENT OR PREVENTION OF CANCER” (Novartis AG, priority 2015, published 2018).
